Test results from publication PMC12517324, “Hyperagonism of a Vitamin D Receptor Agonist/Histone Deacetylase Inhibitor Hybrid Molecule” (Journal of Medicinal Chemistry, 2025).

Test system: B16–F10 cells
Test: RNaseq gene expression profiling;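 as to logFC Cck: Hybrid compounds tested at 10 µM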;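 as to logFC Cited1: Hybrid compounds tested at 10 µM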
Assay type: cell-based, mouse
Details: 100 nM, 24 h
Description: AC-340 superinduced CYP24A1 expression in all cell lines tested, and ZG-126 appeared to be a hyperagonist in SK-MEL-28 cells. […] AC-340 treatment produced 3 times more differentially expressed genes (DEGs) than AM-193, with ZG-126 producing an intermediate number (Figure A). […] The varying effects of each treatment on the numbers of regulated genes and the fold changes observed are reflected in plots of log-fold changes and volcano plots (Figure S3B).
A quality control was performed before sequencing in paired-end at 50 M reads by Illumina NovaSeq 6000 S4 PE100. After sequencing, the FASTQ files were sent to us and all downstream analysis were performed on Galaxy (Galaxy (usegalaxy.org)). First, trimmomatic tool was used to remove the adapters from the reads. Then, using the alignment tool, HISAT2, the reads were mapped to the mouse genome. In the next step, the counted reads were annotated and finally the list of differentially expressed genes (DEGs) for each treatment was obtained using the preinstalled R package called Limma.

SMILES: O=C(CCCCCCC(=O)Nc1ccccc1)NO [SAHA, suberoylanilide hydroxamic acid]
- logFC 1500009L16Rik: 0.7062
- logFC Abca13: 0.7574
- logFC Adam19: 0.5841
- logFC Adamts7: 1.124
- logFC Adamts14: 1.217
- logFC Ank3: 0.7456
- logFC Apbb1: 0.8022
- logFC Atcay: 1.535
- logFC Atp1b2: 0.7178
- logFC Atp2b4: 0.9179
- logFC Bcan: 0.5824
- logFC Btn1a1: 2.439
- logFC C1qtnf1: 1.607
- logFC C1s1: 0.9877
- logFC Card10: 0.6233
- logFC Cck: -0.6184
- logFC Ccl2: 0.7906
- logFC Chn1: 0.6625
- logFC Cited1: -0.5815
- logFC Clcnka: 1.628
- logFC Clu: 0.9236
- logFC Col1a1: 1.702
- logFC Cpm: 0.8993
- logFC Crip1: 0.7228
- logFC Crmp1: 0.7266
- logFC Csdc2: 1.013
- logFC Dock10: 0.6896
- logFC Egfl7: 0.5994
- logFC Elovl4: 0.6542
- logFC Enpp1: 0.7446
- logFC Enpp3: 0.9035
- logFC Entpd2: 0.9577
- logFC Fam131b: 1.153
- logFC Fbxo41: 0.8175
- logFC Fstl1: 1.348
- logFC Gli1: 1.843
- logFC Glipr2: 0.8149
- logFC Gpr162: 0.6749
- logFC Gsdmc: 0.6713
- logFC Gstt1: 1.731
- logFC Hoxb9: 0.9565
- logFC Itga8: 0.6392
- logFC Jam2: 0.5927
- logFC Kcnh2: 1.1509
- logFC Kcnt1: 2.101
- logFC Kdelr3: 0.5979
- logFC Klrg2: 0.6093
- logFC Loxl4: 0.8565
- logFC Lrp11: 0.65
- logFC Lrrc75b: 1.006
- logFC Ltbp4: 1.299
- logFC Map2: 0.5974
- logFC Mgat3: 0.5859
- logFC Mmp11: 0.7246
- logFC Mmp17: 1.252
- logFC Mogat2: 0.5856
- logFC Myl9: 0.6886
- logFC Nacad: 0.9826
- logFC Ndrg4: 0.8254
- logFC Neurl1a: 0.5887
- logFC Notch1: 0.8121
- logFC Palld: 0.5874
- logFC Pcdh17: 0.6033
- logFC Pdgfra: 1.16
- logFC Plat: 0.5899
- logFC Plppr2: 0.641
- logFC Plppr3: 0.7184
- logFC Pmm1: 0.5873
- logFC Ppm1j: 0.9349
- logFC Prelp: 0.6949
- logFC Prnd: 0.9638
- logFC Prph: 1.113
- logFC Ptgs1: 0.7769
- logFC Rab7b: 1.164
- logFC Rasa4: 1.171
- logFC Rcn3: 0.5908
- logFC Reep6: 0.6217
- logFC Rflnb: 0.6241
- logFC Rhpn2: 0.7266
- logFC Rtn2: 0.735
- logFC Rtn4rl2: 1.53
- logFC Rundc3a: 0.8211
- logFC S100a6: 0.8372
- logFC Scube3: 0.7375
- logFC Septin4: 0.8607
- logFC Septin5: 1.1153
- logFC Spn: 1.292
- logFC Sptbn2: -0.6313
- logFC Stum: 0.9146
- logFC Syt3: 1.3692
- logFC Syt7: 0.603
- logFC Tagln2: 0.7428
- logFC Tgm2: 1.1319
- logFC Thbs3: 0.7215
- logFC Tlr1: 0.6918
- logFC Trim47: 0.6166
- logFC Trnp1: 0.6142
- logFC Uchl1: 0.7608
- logFC Vash1: 0.6486
- logFC Vdr: 1.045
- logFC Wfdc1: 0.7568
- logFC Wnt6: 1.4553
